Results taken from patent publication US9050341B2, “Methods of treating drug resistant and other tumors by administering 6,7-dialkoxy quinazoline derivatives” (NATCO PHARMA LIMITED, priority 2009, dated 2015).

Experiments:
Test in all cases: KinomeScan kinase profiling
Format in all cases: binding
[1] = target: T1, ABL2 (Homo sapiens, UniProt P42684)
T1 construct: host or cells: E. coli host derived from BL21 (T7 phage lysate)
Procedure, shortened: (§1)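 Kinases were expressed as T7 phage fusions in a BL21-derived E. coli host and the cleared lysates were used. Ligand beads were blocked with biotin and buffer (1% BSA, 0.05% Tween 20, 1 mM DTT). Compounds came from 40× DMSO stocks, and phage in the eluates was titred by qPCR.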

[2] = target: T2, JAK3 (JH1domain-catalytic) (Homo sapiens, UniProt P52333)
T2 construct: JAK3 (JH1domain-catalytic); host or cells: T7 phage in E. coli host derived from BL21
Procedure, shortened: as §1

[3] = target: T3, PIK3CA (Homo sapiens, UniProt P42336)
T3 construct: host or cells: E. coli host derived from the BL21 strain, infected with T7 phage
Procedure, shortened: as §1

[4] = target: T4, FLT3 (Homo sapiens, UniProt P36888)
T4 construct: host or cells: E. coli host derived from BL21, infected with T7 phage
Procedure, shortened: as §1

[5] = target: T5, MARK4 (Homo sapiens, UniProt Q96L34)
T5 construct: host or cells: E. coli derived from BL21, infected with T7 phage
T5 sequence (Q96L34 whole entry): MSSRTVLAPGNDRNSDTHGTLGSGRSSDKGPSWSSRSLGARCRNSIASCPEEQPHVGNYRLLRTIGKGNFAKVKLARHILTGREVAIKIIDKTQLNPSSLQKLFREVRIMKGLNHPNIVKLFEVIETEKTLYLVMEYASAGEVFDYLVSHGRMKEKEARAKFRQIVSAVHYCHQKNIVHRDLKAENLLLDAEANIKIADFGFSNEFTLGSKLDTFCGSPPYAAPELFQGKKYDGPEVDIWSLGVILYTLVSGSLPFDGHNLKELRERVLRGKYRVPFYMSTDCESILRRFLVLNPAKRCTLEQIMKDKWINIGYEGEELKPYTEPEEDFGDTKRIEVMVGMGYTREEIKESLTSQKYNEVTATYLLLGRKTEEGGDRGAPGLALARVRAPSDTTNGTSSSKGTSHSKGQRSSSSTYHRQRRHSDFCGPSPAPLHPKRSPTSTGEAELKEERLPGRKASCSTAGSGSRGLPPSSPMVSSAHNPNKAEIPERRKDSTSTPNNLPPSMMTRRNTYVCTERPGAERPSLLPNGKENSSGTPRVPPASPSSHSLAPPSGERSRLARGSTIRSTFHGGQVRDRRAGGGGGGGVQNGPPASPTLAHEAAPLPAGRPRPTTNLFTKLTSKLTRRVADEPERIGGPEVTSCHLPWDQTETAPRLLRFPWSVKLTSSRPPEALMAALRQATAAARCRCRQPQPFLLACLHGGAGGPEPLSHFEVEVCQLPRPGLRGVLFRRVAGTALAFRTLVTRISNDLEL
Procedure, shortened: as §1

[6] = target: T6, SRMS (Homo sapiens, UniProt Q9H3Y6)
T6 construct: host or cells: E. coli host derived from the BL21 strain, T7 phage lysate
T6 sequence (Q9H3Y6 whole entry): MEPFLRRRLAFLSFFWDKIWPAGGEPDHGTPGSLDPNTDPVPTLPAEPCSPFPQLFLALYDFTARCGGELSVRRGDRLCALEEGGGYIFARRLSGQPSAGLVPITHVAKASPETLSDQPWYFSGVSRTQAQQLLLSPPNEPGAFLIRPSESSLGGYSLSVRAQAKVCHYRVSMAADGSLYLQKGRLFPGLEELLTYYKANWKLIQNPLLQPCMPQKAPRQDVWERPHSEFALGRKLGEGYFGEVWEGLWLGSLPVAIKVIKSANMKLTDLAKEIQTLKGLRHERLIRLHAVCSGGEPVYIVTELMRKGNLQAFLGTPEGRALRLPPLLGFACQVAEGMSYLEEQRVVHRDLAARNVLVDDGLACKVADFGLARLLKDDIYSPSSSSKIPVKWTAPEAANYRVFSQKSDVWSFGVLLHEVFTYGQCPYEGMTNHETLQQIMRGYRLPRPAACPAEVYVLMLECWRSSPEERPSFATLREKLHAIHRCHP
Procedure, shortened: as §1

[7] = target: T7, PRKCH (Homo sapiens, UniProt P24723)
T7 construct: purchased Ambit Biosciences Corp (KinomeScan); host or cells: E. coli host derived from BL21, infected with T7 phage
Procedure, shortened: as §1

[8] = target: T8, RIPK1 (Homo sapiens, UniProt Q13546)
T8 construct: host or cells: E. coli host derived from BL21, T7 phage lysate
T8 sequence (Q13546 whole entry): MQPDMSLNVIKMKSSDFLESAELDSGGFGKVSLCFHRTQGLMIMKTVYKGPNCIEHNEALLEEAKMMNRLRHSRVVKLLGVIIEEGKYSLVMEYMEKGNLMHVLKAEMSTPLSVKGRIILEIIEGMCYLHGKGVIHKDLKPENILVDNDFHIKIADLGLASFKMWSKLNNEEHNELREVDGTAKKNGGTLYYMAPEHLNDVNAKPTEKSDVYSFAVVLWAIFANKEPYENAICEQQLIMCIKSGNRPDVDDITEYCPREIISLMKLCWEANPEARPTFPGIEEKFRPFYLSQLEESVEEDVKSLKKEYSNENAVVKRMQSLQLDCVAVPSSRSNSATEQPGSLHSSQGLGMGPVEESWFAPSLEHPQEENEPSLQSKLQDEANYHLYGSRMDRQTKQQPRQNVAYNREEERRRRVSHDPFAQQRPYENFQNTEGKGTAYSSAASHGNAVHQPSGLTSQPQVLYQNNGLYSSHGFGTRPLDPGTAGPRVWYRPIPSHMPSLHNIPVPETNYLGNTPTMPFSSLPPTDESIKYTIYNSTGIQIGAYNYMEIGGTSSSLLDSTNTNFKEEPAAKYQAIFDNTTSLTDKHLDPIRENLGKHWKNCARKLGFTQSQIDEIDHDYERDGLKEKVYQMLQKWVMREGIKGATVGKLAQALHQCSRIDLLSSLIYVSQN
Procedure, shortened: as §1

[9] = target: T9, SRC (Homo sapiens, UniProt P12931)
T9 construct: host or cells: E. coli host derived from the BL21 strain, T7 phage lysate
Procedure, shortened: as §1

[10] = target: T10, KIT (D816V) (Homo sapiens, UniProt P10721, D816V)
T10 construct: host or cells: T7 phage in E. coli host derived from BL21
Procedure, shortened: as §1

[11] = target: T11, RPS6KA6 (Kin.Dom.-1-N-terminal) (Homo sapiens, UniProt Q9UK32)
T11 construct: RPS6KA6 (Kin.Dom.-1-N-terminal); host or cells: E. coli host derived from BL21, T7 phage lysate
T11 sequence (Q9UK32 73-330 limits assumed): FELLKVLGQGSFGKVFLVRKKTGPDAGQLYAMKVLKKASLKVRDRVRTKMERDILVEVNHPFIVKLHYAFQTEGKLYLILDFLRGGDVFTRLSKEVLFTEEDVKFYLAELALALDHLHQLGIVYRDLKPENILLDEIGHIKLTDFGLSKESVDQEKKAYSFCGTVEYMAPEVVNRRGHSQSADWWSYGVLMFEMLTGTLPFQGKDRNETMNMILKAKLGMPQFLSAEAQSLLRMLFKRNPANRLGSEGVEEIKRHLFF
Procedure, shortened: as §1

[12] = target: T12, RIOK2 (Homo sapiens, UniProt Q9BVS4)
T12 construct: host or cells: E. coli host derived from BL21, T7 phage lysate
Procedure, shortened: as §1

[13] = target: T13, EGFR (L747-S752del, P753S) (Homo sapiens, UniProt P00533, DEL747-752/P753S)
T13 construct: purchased Ambit Biosciences Corp (KinomeScan); host or cells: T7 phage in E. coli host derived from BL21
Procedure, shortened: as §1

[14] = target: T14, CAMK4 (Homo sapiens, UniProt Q16566)
T14 construct: host or cells: T7 phage in E. coli (BL21-derived)
T14 sequence (Q16566 whole entry): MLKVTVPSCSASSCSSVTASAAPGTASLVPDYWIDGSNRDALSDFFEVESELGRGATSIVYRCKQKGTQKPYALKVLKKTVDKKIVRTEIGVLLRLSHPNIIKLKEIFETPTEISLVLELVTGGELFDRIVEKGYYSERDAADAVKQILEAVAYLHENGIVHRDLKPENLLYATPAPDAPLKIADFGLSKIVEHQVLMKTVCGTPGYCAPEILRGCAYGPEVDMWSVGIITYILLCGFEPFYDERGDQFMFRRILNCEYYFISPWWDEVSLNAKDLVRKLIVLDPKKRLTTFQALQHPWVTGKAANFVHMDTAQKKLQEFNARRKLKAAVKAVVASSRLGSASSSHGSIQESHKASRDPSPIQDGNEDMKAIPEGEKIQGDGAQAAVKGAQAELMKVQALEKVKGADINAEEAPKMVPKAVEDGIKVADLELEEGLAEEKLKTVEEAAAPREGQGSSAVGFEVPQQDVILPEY
Procedure, shortened: as §1

[15] = target: T15, MLK2 (Homo sapiens, UniProt Q02779)
T15 construct: host or cells: T7 phage in E. coli host derived from BL21
Procedure, shortened: as §1

[16] = target: T16, CDC2L2 (Homo sapiens, UniProt Q9UQ88)
T16 construct: host or cells: T7 phage in E. coli (BL21-derived)
Procedure, shortened: as §1

[17] = target: T17, FGFR4 (Homo sapiens, UniProt P22455)
T17 construct: host or cells: E. coli host derived from BL21, infected with T7 phage
Procedure, shortened: as §1

[18] = target: T18, PYK2 (Homo sapiens, UniProt Q14289)
T18 construct: host or cells: E. coli host derived from BL21, T7 phage lysate
T18 sequence (Q14289 whole entry): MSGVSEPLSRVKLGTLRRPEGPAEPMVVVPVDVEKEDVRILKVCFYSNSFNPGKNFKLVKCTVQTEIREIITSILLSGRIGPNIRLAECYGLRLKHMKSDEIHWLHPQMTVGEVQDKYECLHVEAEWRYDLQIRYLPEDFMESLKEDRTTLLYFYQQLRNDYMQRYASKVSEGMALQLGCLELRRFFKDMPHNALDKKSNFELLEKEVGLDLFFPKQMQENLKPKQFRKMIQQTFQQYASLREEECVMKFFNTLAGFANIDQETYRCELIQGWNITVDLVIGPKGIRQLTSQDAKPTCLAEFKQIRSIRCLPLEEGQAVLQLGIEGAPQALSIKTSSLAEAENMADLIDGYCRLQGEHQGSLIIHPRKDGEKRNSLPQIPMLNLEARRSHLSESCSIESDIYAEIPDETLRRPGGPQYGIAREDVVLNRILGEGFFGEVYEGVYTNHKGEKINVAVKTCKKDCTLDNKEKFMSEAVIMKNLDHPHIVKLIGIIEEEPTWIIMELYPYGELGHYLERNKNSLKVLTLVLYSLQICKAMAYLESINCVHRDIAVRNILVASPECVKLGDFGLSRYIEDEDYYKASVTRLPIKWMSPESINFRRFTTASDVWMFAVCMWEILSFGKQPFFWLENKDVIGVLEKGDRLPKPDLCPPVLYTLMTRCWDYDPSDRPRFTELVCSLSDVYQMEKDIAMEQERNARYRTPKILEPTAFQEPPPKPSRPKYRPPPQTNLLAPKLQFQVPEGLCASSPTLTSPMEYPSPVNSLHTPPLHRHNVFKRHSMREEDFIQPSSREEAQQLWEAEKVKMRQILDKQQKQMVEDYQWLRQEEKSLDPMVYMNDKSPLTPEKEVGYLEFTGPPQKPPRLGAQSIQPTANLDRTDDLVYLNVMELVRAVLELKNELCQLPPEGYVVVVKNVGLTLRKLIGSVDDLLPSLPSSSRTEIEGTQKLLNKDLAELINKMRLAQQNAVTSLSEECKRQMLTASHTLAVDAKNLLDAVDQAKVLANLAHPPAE
Procedure, shortened: as §1

[19] = target: T19, EPHA6 (Homo sapiens, UniProt Q9UF33)
T19 construct: host or cells: E. coli host derived from BL21, T7 phage lysate
Procedure, shortened: as §1

[20] = target: T20, ITK (Homo sapiens, UniProt Q08881)
T20 construct: host or cells: T7 phage in E. coli host derived from BL21
Procedure, shortened: as §1

[21] = target: T21, EGFR (G719S) (Homo sapiens, UniProt P00533, G719S)
T21 construct: purchased Ambit Biosciences Corp (KinomeScan); host or cells: T7 phage in E. coli host derived from BL21
Procedure, shortened: as §1

[22] = target: T22, STK16 (Homo sapiens, UniProt O75716)
T22 construct: host or cells: E. coli host derived from the BL21 strain, T7 phage lysate
Procedure, shortened: as §1

T1 sequence (P42684 whole entry): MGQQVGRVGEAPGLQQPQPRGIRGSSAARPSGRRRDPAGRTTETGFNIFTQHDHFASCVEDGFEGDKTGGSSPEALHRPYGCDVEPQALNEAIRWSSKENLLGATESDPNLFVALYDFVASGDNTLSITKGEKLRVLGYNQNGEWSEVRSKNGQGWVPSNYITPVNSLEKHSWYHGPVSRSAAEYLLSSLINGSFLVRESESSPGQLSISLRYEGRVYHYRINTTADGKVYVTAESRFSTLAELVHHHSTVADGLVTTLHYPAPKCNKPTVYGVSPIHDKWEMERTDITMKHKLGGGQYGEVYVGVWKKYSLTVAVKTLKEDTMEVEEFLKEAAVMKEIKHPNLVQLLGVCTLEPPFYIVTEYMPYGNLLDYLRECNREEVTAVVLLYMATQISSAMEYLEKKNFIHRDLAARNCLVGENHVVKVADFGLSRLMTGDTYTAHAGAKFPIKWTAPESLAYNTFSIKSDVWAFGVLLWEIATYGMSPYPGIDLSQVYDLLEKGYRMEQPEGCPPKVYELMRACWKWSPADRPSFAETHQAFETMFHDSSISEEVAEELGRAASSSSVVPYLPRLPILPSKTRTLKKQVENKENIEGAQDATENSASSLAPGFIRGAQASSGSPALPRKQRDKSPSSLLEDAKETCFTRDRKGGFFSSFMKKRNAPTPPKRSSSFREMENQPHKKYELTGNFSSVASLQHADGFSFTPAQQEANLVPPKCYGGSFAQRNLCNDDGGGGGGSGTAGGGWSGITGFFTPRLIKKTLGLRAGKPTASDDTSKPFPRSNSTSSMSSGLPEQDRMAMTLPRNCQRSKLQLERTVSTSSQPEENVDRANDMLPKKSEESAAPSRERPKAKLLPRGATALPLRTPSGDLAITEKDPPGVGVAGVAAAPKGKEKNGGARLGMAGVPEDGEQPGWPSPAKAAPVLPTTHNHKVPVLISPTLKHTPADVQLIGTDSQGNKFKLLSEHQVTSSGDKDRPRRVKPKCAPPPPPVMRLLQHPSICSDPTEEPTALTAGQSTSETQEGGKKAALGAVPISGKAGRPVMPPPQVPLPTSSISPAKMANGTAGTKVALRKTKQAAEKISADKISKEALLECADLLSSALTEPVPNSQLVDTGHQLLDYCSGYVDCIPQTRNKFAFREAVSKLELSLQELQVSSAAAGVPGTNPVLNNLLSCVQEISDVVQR

C#Cc1cccc(Nc2ncnc3cc(OC)c(OCCCN4CCOCC4)cc23)c1 [NRC-2694, N-(3-ethylnylphenyl)-7-methoxy-6-[3-(4-morpholinyl)propoxy]-4-quinazolinamine]
% Ctrl @ 10000 nM [1]: 43 % Ctrl | % Ctrl @ 10000 nM [2]: 72 % Ctrl | % Ctrl @ 10000 nM [3]: 100 % Ctrl | % Ctrl @ 10000 nM [4]: 49 % Ctrl | % Ctrl @ 10000 nM [5]: 100 % Ctrl | % Ctrl @ 10000 nM [6]: 100 % Ctrl | % Ctrl @ 10000 nM [7]: 83 % Ctrl | % Ctrl @ 10000 nM [8]: 100 % Ctrl | % Ctrl @ 10000 nM [9]: 24 % Ctrl | % Ctrl @ 10000 nM [10]: 17 % Ctrl | % Ctrl @ 10000 nM [11]: 94 % Ctrl | % Ctrl @ 10000 nM [12]: 43 % Ctrl | % Ctrl @ 10000 nM [13]: 0.1 % Ctrl | % Ctrl @ 10000 nM [14]: 92 % Ctrl | % Ctrl @ 10000 nM [15]: 83 % Ctrl | % Ctrl @ 10000 nM [16]: 37 % Ctrl | % Ctrl @ 10000 nM [17]: 69 % Ctrl | % Ctrl @ 10000 nM [18]: 71 % Ctrl | % Ctrl @ 10000 nM [19]: 25 % Ctrl | % Ctrl @ 10000 nM [20]: 82 % Ctrl | % Ctrl @ 10000 nM [21]: 0 % Ctrl | % Ctrl @ 10000 nM [22]: 100 % Ctrl
